Results taken from publication PMC7772889, “Integrating biokinetics and in vitro studies to evaluate developmental neurotoxicity induced by chlorpyrifos in human iPSC-derived neural stem cells undergoing differentiation towards neuronal and glial cells” (Reproductive Toxicology (Elmsford, N.y.), 2020).

Legend:
[1] = tested on: hiPSC-derived NSCs undergoing differentiation towards neurons and astrocytes; assay: In vitro biokinetics of CPF and metabolites in medium, cells and plastic (HPLC-UV)
Experimental: The nominal concentration causing 5 % decrease of viability (IC5) was previously identified, extrapolating a dose response curves obtained with six CPF nominal concentrations (0.49, 1.95, 7.81, 31.25, 125, and 500 μM) vs solvent control (0.1 % DMSO) after 14-day treatment by means of resazurin test (CellTiter-Blue® Reagent).
CPF stock solutions were prepared in DMSO and stored in glass at −20 °C until the beginning of each experiment. Freshly prepared treatment solutions were obtained after the dilution of stock solutions in a ratio of […] in serum-free culture medium, keeping DMSO concentration at 0.1 %. Aliquots of the stock and daily treatment solutions (considered as the starting solutions) were stored at −80 °C until HPLC analysis.
Cells (about 21,000 cells/cm^2), seeded on 6 well PDL- and reduced growth factor Matrigel coated plates, were treated during the differentiation process, starting from day 7 of differentiation up to day 21, with treatment/medium refreshed twice a week (Fig. 2). Exposure to CPF of cells or pre-coated wells (without cells) was initiated by adding 2 mL per well of the corresponding treatment solutions or the vehicle (control wells). Four biological replicates were carried out.
A first set of experiments was used to fine tune the experimental conditions, including time points and exposure conditions, taking into account possible metabolism, bioaccumulation and/or physical sequestration processes. All the fractions (i.e., medium, cells, plastic and matrix-bound fractions) were collected, at the first and last day of treatment, at different time points (i.e., 1, 3, 6, 24 h) selected on the basis of the intrinsic features of the compound and the cellular model. At each time point, the medium was transferred into amber glass vials and stored at −80 °C until HPLC analysis. Cells were washed twice with PBS (2 mL/well); to avoid dehydration of the cells, an aliquot of PBS was kept in each well. PBS was then removed, cells were scraped from the wells in 250 μL MeOH, additional 100 μL MeOH were added for washing and all the content was transferred into amber glass vials. The same procedure was applied also to the wells used for measuring matrix-bound material (without cells). Cells were then sonicated until they were fully homogenized (about 15 min). All fractions, including DMSO from control wells and MeOH used to measure possible plastic binding, were stored at −80 °C until HPLC analysis. Four biological replicates were carried out.
All samples from kinetic experiments were analysed using high-performance liquid chromatography (HPLC), as previously described, to quantify CPF and its metabolites. Prior to analysis, one volume of the collected medium samples was mixed with three volumes of MeOH. All the mixtures, including cell and matrix-bound samples, were vortexed for 30 s and then centrifuged (Eppendorf 5417R; 4 °C, 2500 rpm) for 10 min. Preliminary assays were conducted to evaluate CPF and its metabolite recovery after the solvent extraction procedure from each type of sample. […] Plastic-bound fraction was injected as such.
The HPLC system included a PerkinElmer Series 200 analytical pump, a Restek™ Pinnacle ODS Amine C18 column, a PerkinElmer LC 235 Diode Array Detector and the PerkinElmer Totalchrom™ 3.1.2 software for data acquisition and evaluation. For analysing CPF, CPFO and TCP, a gradient elution was applied at a flow rate of 1.0 mL/min, starting at 80:20 % methanol /buffer (Tris /HCl 50 mM EDTA 1 mM pH 7.4) and reaching after 4 min a percentage of 70:30 (v/v), respectively, maintained for 16 min. Then, the gradient returned to the initial concentration before the next sample was injected.

[2] = cited from earlier work
[3] = prenatal exposure to CPF; cited from earlier work

With `Oc1nc(Cl)c(Cl)cc1Cl` [TCP, 3,5,6-trichloro-2-pyridinol] the “TCP in the intracellular compartment or adsorbed to the plastic” value ([1]; any time point) was “No TCP was detectable”, the “TCP present in the medium” value ([1]; first day of treatment with 21 μM CPF) was 6–18% and the “TCP present in the medium” value ([1]; last day of treatment with 21 μM CPF) was 7–14%.
In the case of `CCCCc1oc2ccccc2c1C(=O)c1cc(I)c(OCCN(CC)CC)c(I)c1` [amiodarone, reference compound], the “log Kow” value [2] is listed as 7.6.
In the case of `CCOP(=O)(O)OCC` [diethylphosphate], the “level in human postpartum meconium” value [3] is given as 0.80 to 3.20 µg/g.
In the case of `CCOP(O)(=S)OCC` [diethylthiophosphate], the “level in human postpartum meconium” value [3] is listed as 2.0 to 5.6 µg/g.
With chlorpyrifos-oxon [CPFO] the “CPFO adsorbed to the plastic” value ([1]; any time point) was “no CPFO adsorbed to the plastic was detectable” and the CPFO detection ([1]; last day of treatment) was “no longer detectable”.
